Measurements as given in patent US20250313530A1, “SMALL MOLECULE INHIBITORS OF INTERLEUKIN-4 AND USES THEREOF” (Trustees of Boston University, priority 2024, published 2025).
Where “and” joins values, the source holds several entries; their conditions need not be identical. Equal entries are not always repeated. Where two headings read alike, the source gives them in different places.

Target: T1, IL-4 (Homo sapiens, UniProt P05112)
T1 construct: purchased Acros Biosystems IL4-H4218; host or cells: HEK-293
T1 sequence (P05112 25-153): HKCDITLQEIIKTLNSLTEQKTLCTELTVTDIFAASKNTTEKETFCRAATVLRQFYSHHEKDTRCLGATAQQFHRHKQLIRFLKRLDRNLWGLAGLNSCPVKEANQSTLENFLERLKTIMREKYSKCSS
Assay: HEK-Blue IL-4/IL-13 reporter assay, IL-4 inhibition
Assay type: cell-based
Conditions: for inhibition at 10 µM: HEK-Blue; for inhibition at 10 µM / % Inhibition: IL-4, HEK Blue IL-4/IL-13 reporter assay, 10 μM; for EC50: HEK Blue IL-4/IL-13 reporter assay, read-out: EC50
Description: HEK-Blue IL-4/IL-13 Inhibition assay. HEK-Blue IL-4/IL-13 reporter cell lines were purchased from Invivogen and cultured in DMEM with 10% Heat Inactivated Fetal Bovine Serum (FBS), 100 U/ml-100 μg/ml Pen-Strep, 10 μg/ml blasticidin, 100 μg/ml Normocin and 100 μg/ml Zeocin. Cells were tested for secreted embryonic alkaline phosphatase (SEAP) production induced by IL-4 alone prior to small molecule screening.
22.5 μl of small molecule in DMEM 4% DMSO was added to 22.5 μl of 1 ng/ml IL-4 in DMEM in a non-binding 96-well reaction plate for 30 minutes at room temperature. The reaction plate was further incubated for 30-60 min at 37° C. HEK-Blue IL-4/IL-13 reporter cell line was used between passages 11-17. […] Measurements were done in triplicate. The plate was incubated for ˜22-24 hours at 37° C./5% CO2. Quanti-Blue dye was prepared as per the manufacturer's recommendation and 160 μl was dispensed in each well of a 96-well plate (avoid edges to avoid evaporation), 40 μl of cell supernatant was added to the same plate and incubated for 3 hours at 37° C./5% CO2. Optical density was then measured at 650 nm using Molecular Devices SpectraMax M5 Microplate reader. Data was analyzed and plotted using GraphPad Prism 9.2.0.

SMILES	inhibition at 10 µM (read-out: % Inhibition)	inhibition at 10 µM	further results
N#Cc1c(-c2ccc(O)c(O)c2)cc(-c2cccc(F)c2)nc1N [Compound 1, 2-amino-4-(3A-dihydroxyphenyl)-6-(3-fluorophenyl)nicotinonitrile]	–	–	% Inhibition: No inhibition
N#Cc1c(-c2ccc(O)c(O)c2)cc(-c2ccccc2F)nc1N [Compound 2, 2-amino-4-(3A-dihydroxyphenyl)-6-(2-fluorophenyl)nicotinonitrile]	–	–	% Inhibition: 40.0 ± 5.87%
N#CC1C(=N)N=C(c2ccc(Br)cc2)C=C1c1ccc(O)c(O)c1 (stereo not drawn) [Compound 3, 6-(4-bromophenyl)-4-(3,4-dihydroxyphenyl)-2-imino-2,3-dihydropyridine-3-carbonitrile]	–	–	% Inhibition: 63.3 ± 2.54% and 93.3 ± 2.54%; EC50 (dose response, IL-4 inhibition): 1300 ± 390 nM
N#Cc1c(-c2ccc(O)c(O)c2)cc(-c2ccc(O)cc2)[nH]c1=N [Compound 4, 4-(3,4-dihydroxyphenyl)-6-(4-hydroxyphenyl)-2-imino-1,2-dihydropyridine-3-carbonitrile]	–	> 80%	% Inhibition: 81.2 ± 18.9%; EC50 (dose response, IL-4 inhibition): 1140 ± 380 nM
Cc1ccc(-c2cc(-c3ccc(O)c(O)c3)c(C#N)c(=N)[nH]2)cc1 [Compound 5, 4-(3,4-dihydroxyphenyl)-2-imino-6-(p-tolyl)-1,2-dihydropyridine-3-carbonitrile]	–	> 80%	% Inhibition: 62.7 ± 4.30% and 82.7 ± 4.30%; EC50 (dose response, IL-4 inhibition): 1290 ± 470 nM
COc1ccc(C2=NC(=N)C(C#N)C(c3ccc(O)c(O)c3)=C2)cc1 (stereo not drawn) [Compound 6, 4-(3,4-dihydroxyphenyl)-2-imino-6-(4-methoxyphenyl)-2,3-dihydropyridine-3-carbonitrile]	–	–	% Inhibition: 51.7 ± 5.05%; EC50 (dose response, IL-4 inhibition): 3020 ± 610 nM
N#Cc1c(-c2ccc(O)c(O)c2)cc(-c2ccco2)nc1N [Compound 8, 2-amino-4-(3,4-dihydroxyphenyl)-6-(furan-2-yl)nicotinonitrile]	–	–	% Inhibition: No inhibition
N#Cc1c(-c2ccc(O)c(O)c2)cc(-c2ccc3ccccc3c2)[nH]c1=N [Compound 11, 4-(3,4-dihydroxyphenyl)-2-imino-6-(naphthalen-2-yl)-1,2-dihydropyridine-3-carbonitrile]	–	54.7 ± 8.42%	–
N#Cc1c(-c2ccc(O)c(O)c2)cc(C2CCCCC2)nc1N [Compound 12, 2-amino-6-cyclohexyl-4-(3,4-dihydroxyphenyl)nicotinonitrile]	–	49.4%	% Inhibition: 48.4 ± 5.80%
N#Cc1c(-c2ccc(O)c(O)c2)cc(-c2ccc(-n3ccnc3)cc2)nc1N [Compound 16, 6-(4-(1H-imidazol-1-yl)phenyl)-2-amino-4-(3,4-dihydroxyphenyl)nicotinonitrile]	–	–	% Inhibition: No inhibition
N#CC1C(=O)N=C(c2ccc(O)cc2)C=C1c1ccc(O)c(O)c1 (stereo not drawn) [Compound 32, 4-(3,4-dihydroxyphenyl)-6-(4-hydroxyphenyl)-2-oxo-2,3-dihydropyridine-3-carbonitrile]	–	94.1%	–
N#Cc1c(-c2ccc(O)c(C(=O)O)c2)cc(-c2ccc(N)cc2)nc1N [Compound 33, 5-(2-amino-6-(4-aminophenyl)-3-cyanopyridin-4-yl)-2-hydroxybenzoic acid]	–	6.63%	–
N#Cc1c(-c2ccc(Cl)c(Cl)c2)cc(-c2ccc(F)cc2)[nH]c1=O [Compound 34, 4-(3,4-dichlorophenyl)-6-(4-fluorophenyl)-2-oxo-1,2-dihydropyridine-3-carbonitrile]	–	44.2 ± 11.1%	–
N#Cc1c(-c2ccccc2O)cc(-c2ccc(F)cc2)nc1O [Compound 39, 6-(4-fluorophenyl)-2-hydroxy-4-(2-hydroxyphenyl)nicotinonitrile]	–	100%	EC50 (dose response, IL-4 inhibition): 1750 nM
N#Cc1c(-c2cccc(O)c2)cc(-c2ccc(F)cc2)[nH]c1=O [Compound 40, 6-(4-fluorophenyl)-4-(3-hydroxyphenyl)-2-oxo-1,2-dihydropyridine-3-carbonitrile]	–	64.3 ± 12.3%	–
N#Cc1c(-c2ccc(O)cc2)cc(-c2ccc(F)cc2)[nH]c1=O [Compound 41, 6(4-fluorophenyl)-4-(4-hydroxyphenyl)-2-oxo-1,2-dihydropyridine-3-carbonitrile]	–	60.7 ± 10.3%	–
COc1cc(-c2cc(-c3ccc(F)cc3)[nH]c(=O)c2C#N)ccc1O [Compound 42, 6(4-fluorophenyl)-4-(4-hydroxy-3-methoxyphenyl)-2-oxo-1,2-dihydropyridine-3-carbonitrile]	–	67.6 ± 4.88%	–
COc1cc(-c2cc(-c3ccc(F)cc3)[nH]c(=N)c2C#N)ccc1O [Compound 48, 6-(4-fluorophenyl)-4-(4-hydroxy-3-methoxyphenyl)-2-imino-1,2-dihydropyridine-3-carbonitrile]	–	100 ± 0.49%	EC50 (dose response, IL-4 inhibition): 8400 nM and 6400 nM
COc1ccc(-c2cc(-c3ccc(F)cc3)[nH]c(=N)c2C#N)cc1O [Compound 49, 6-(4-fluorophenyl)-4-(3-hydroxy-4-methoxyphenyl)-2-imino-1,2-dihydropyridine-3-carbonitrile]	–	82.2 ± 7.2%	EC50 (dose response, IL-4 inhibition): 4020 ± 1850 nM

More lines, main results first:

inhibition at 10 µM (read-out: % Inhibition)	SMILES	inhibition at 10 µM	further results
2.47 ± 14.2%	N#Cc1c(-c2ccc(O)c(O)c2)cc(C2CC2)nc1N [2A/55, 2-amino-6-cyclopropyl-4-(3,4-dihydroxyphenyl) nicotinonitrile]	–	–
28.5 ± 12.1%	N#Cc1c(-c2ccc(O)c(O)c2)cc(C2CCC2)nc1N [3A/56, 2-amino-6-cyclobutyl-4-(3,4-dihydroxyphenyl) nicotinonitrile]	–	–
94.3%	N#Cc1c(-c2ccc(O)c(O)c2)cc(-c2cccnc2)[nH]c1=N [Compound 7, 4-(3,4-dihydroxyphenyl)-6-imino-1,6-dihydro-[2,3′-bipyridine]-5-carbonitrile]	–	% Inhibition: 84.3 ± 1.11%; EC50 (dose response, IL-4 inhibition): 2020 ± 970 nM
64.2 ± 13.4%	N#CC1C(=N)N=C(c2cnccn2)C=C1c1ccc(O)c(O)c1 (stereo not drawn) [Compound 9, 4-(3,4-dihydroxyphenyl)-2-imino-6-(pyrazin-2-yl)-2,3-dihydropyridine-3-carbonitrile]	–	–
4.73 ± 4.58%	N#Cc1c(-c2ccc(O)c(O)c2)cc(-c2ccc(-c3ccccc3)cc2)[nH]c1=N [Compound 10, 6-([1,1′-biphenyl]-4-yl)-4-(3,4-dihydroxyphenyl)-2-imino-1,2-dihydropyridine-3-carbonitrile]	–	–
70.2%	Cc1cc(-c2ccc(O)c(O)c2)c(C#N)c(N)n1 [Compound 13, 2-amino-4-(3,4-dihydroxyphenyl)-6-methylnicotinonitrile]	–	–
22.9 ± 1.48%	CN(C)c1ccc(-c2cc(-c3ccc(O)c(O)c3)c(C#N)c(N)n2)cc1 [Compound 17, 2-amino-4-(3,4-dihydroxyphenyl)-6-(4-(dimethylamino)phenyl)nicotinonitrile]	–	–
88.2 ± 13.9%	Cc1ccc(N2CCCCC2)cc1 [Compound 18]	–	–
71.2 ± 5.6%	N#Cc1c(-c2ccc(O)c(O)c2)cc(-c2ccc(F)cc2)[nH]c1=O [Compound 19, 4-(3,4-dihydroxyphenyl)-6-(4-fluorophenyl)-2-oxo-1,2-dihydropyridine-3-carbonitrile]	–	–
97.7%	Cc1c(-c2ccc(F)cc2)[nH]c(=N)c(C#N)c1-c1ccc(O)c(O)c1 [Compound 20, 4-(3,4-dihydroxyphenyl)-6-(4-fluorophenyl)-2-imino-5-methyl-1,2-dihydropyridine-3-carbonitrile]	–	potency compared with Nico-52 (in words) (dose response, IL-4 inhibition): less potency than Nico-52; EC50 (dose response, IL-4 inhibition): 2690 ± 570 nM
68.7 ± 9.84%	N#CC1C(=O)N=C(c2ccc(-c3ccccc3)cc2)C=C1c1ccc(O)c(O)c1 (stereo not drawn) [Compound 31, 6-([1,1′-biphenyl]-4-yl)-4-(3,4-dihydroxyphenyl)-2-oxo-2,3-dihydropyridine-3-carbonitrile]	–	–
27.6 ± 25.1%	N#Cc1c(-c2ccccc2)cc(-c2ccc(F)cc2)[nH]c1=O [Compound 35, 6-(4-fluorophenyl)-2-oxo-4-phenyl-1,2-dihydropyridine-3-carbonitrile]	–	–
0.48 ± 17.1%	Cc1ccc(-c2cc(-c3ccc(F)cc3)[nH]c(=O)c2C#N)o1 [Compound 37, 6(4-fluorophenyl)-4-(5-methylfuran-2-yl)-2-oxo-1,2-dihydropyridine-3-carbonitrile]	–	–
6.13 ± 9.13%	N#Cc1c(-c2ccccc2)cc(-c2ccc(F)cc2)[nH]c1=N [Compound 43, 6-(4-fluorophenyl)-2-imino-4-phenyl-1,2-dihydropyridine-3-carbonitrile]	–	–
33.9 ± 21.4%	Cc1ccc(-c2cc(-c3ccc(F)cc3)[nH]c(=N)c2C#N)o1 [Compound 44, 6-(4-fluorophenyl)-2-imino-4-(5-methylfuran-2-yl)-1,2-dihydropyridine-3-carbonitrile]	–	–
37.5 ± 19.9%	Cc1ccc(-c2cc(-c3ccc(F)cc3)[nH]c(=N)c2C#N)s1 [Compound 45, 6-(4-fluorophenyl)-2-imino-4-(5-methylthiophen-2-yl)-1,2-dihydropyridine-3-carbonitrile]	–	–
98.8 ± 1.54%	N#Cc1c(-c2ccccc2O)cc(-c2ccc(F)cc2)nc1N [Compound 47, 2-amino-6-(4-fluorophenyl)-4-(2-hydroxyphenyl)nicotinonitrile]	–	EC50 (dose response, IL-4 inhibition): 3400 nM and 3450 nM
